Test results: US20100105655A1, “NOVEL COMPOUNDS 515” (ASTRAZENECA AB, priority 2008, published 2010)

target: T1, IGFR kinase (Homo sapiens, UniProt P08069); assay: Enzyme assay (c), IGFR kinase, Caliper LabChip; assay type: biochemical; conditions: 30 nM IGFR kinase, 6 uM ATP, 3 uM peptide mix; read-out: IGFR IC50
T1 construct: purchased Millipore
T1 sequence (P08069 31-1367): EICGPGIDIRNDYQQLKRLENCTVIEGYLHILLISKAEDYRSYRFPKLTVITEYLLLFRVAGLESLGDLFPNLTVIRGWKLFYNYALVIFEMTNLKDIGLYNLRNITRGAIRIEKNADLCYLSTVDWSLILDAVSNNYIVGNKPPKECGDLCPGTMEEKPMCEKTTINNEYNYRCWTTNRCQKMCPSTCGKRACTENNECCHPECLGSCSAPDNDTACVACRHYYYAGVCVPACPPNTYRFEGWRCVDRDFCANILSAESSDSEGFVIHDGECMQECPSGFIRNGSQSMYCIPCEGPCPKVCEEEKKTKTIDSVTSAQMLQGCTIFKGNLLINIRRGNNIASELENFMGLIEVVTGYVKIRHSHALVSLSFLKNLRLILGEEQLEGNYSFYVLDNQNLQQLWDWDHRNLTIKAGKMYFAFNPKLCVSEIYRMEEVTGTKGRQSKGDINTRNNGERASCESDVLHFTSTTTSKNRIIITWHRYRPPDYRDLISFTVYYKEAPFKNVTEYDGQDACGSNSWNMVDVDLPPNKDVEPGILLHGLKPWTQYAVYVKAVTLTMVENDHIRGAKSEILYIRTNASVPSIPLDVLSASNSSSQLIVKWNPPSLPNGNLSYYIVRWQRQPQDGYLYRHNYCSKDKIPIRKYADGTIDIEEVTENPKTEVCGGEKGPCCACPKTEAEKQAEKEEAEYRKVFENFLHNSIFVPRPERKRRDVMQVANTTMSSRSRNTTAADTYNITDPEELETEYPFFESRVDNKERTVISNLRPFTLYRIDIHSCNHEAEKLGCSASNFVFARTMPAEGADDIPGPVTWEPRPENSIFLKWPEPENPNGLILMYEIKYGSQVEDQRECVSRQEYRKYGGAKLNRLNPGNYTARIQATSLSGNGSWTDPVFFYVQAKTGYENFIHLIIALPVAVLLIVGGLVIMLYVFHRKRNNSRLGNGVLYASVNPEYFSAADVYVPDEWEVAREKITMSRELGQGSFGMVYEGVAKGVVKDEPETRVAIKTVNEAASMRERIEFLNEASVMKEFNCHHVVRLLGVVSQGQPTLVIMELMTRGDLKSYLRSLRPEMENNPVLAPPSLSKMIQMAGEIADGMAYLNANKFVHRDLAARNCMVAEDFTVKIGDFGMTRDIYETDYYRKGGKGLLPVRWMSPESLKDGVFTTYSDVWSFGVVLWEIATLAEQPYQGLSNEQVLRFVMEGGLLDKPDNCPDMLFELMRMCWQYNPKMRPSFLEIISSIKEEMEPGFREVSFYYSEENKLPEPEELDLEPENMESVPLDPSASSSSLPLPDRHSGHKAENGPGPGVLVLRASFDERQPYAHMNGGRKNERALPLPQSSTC

IC50 [nM] | SMILES
43 | COc1cc(N2CCN(CCO)[C@H](C)C2)ccc1Nc1ncc(C)c(-c2cnc3ccccn23)n1 [Example 270, 2-[(2R)-4-[4-[(4-imidazo[1,2-a]pyridin-3-yl-5-methyl-pyrimidin-2-yl)amino]-3-methoxy-phenyl]-2-methyl-piperazin-1-yl]ethanol]
14 | COc1cc(N2CCN(CCC#N)CC2)ccc1Nc1ncc(Cl)c(-c2cnc3ccccn23)n1 [Example 49, 3-[4-[4-[(5-chloro-4-imidazo[1,2-a]pyridin-3-yl-pyrimidin-2-yl)amino]-3-methoxy-phenyl]piperazin-1-yl]propanenitrile]
43 | COc1ccc(N2CCC(OC)CC2)cc1Nc1ncc(Cl)c(-c2cnc3ccccn23)n1 [Example 3.20, 5-chloro-4-imidazo[1,2-a]pyridin-3-yl-N-[2-methoxy-5-(4-methoxy-1-piperidyl)phenyl]pyrimidin-2-amine]
5 | COc1cc(N2CCN(C(=O)[C@@H](N)CCO)CC2)ccc1Nc1ncc(Cl)c(-c2cnc3ccccn23)n1 [Example 24.13, (2S)-2-amino-1-[4-[4-[(5-chloro-4-imidazo[1,2-a]pynidin-3-yl-pyrimidin-2-yl)amino]-3-methoxy-phenyl]piperazin-1-yl]-4-hydroxy-butan-1-one]
110 | COc1cc(C2CCN(C(C)=O)CC2)ccc1Nc1ncc(C#N)c(-c2cnn3ccccc23)n1 [Example 239, 2-[4-(1-acetyl-4-piperidyl)-2-methoxy-anilino]-4-pyrazolo[1,5-a]pyridin-3-yl-pyrimidine-5-carbonitrile]
24 | COCCOC(=O)N1CCN(c2ccc(Nc3ncc(Cl)c(-c4cnc5ccccn45)n3)c(OC)c2)CC1 [Example 45, 2-methoxyethyl 4-[4-[(5-chloro-4-imidazo[1,2-a]pyridin-3-yl-pyrimidin-2-yl)amino]-3-methoxy-phenyl]piperazine-1-carboxylate]
9 | COc1cc(N2CCN(C(=O)[C@@H](C)OC)CC2)ccc1Nc1ncc(Cl)c(-c2cnc3ccccn23)n1 [Example 25.5, (2R)-1-[4-[4-[(5-chloro-4-imidazo[1,2-a]pyridin-3-yl-pyrimidin-2-yl)amino]-3-methoxy-phenyl]piperazin-1-yl]-2-methoxy-propan-1-one]
17 | COc1cc(N2CCNCC2)ccc1Nc1ncc(F)c(-c2cnn3ccccc23)n1 [Example 171, 5-fluoro-N-(2-methoxy-4-piperazin-1-yl-phenyl)-4-pyrazolo[1,5-a]pyridin-3-yl-pyrimidin-2-amine]
19 | COc1cc(N2CC3CN(C(=O)CO)CC(C2)O3)ccc1Nc1ncc(Cl)c(-c2cnc3c(F)cccn23)n1 [Example 212, 1-[7-[4-[[5-chloro-4-(8-fluoroimidazo[1,2-a]pyridin-3-yl)pyrimidin-2-yl]amino]-3-methoxy-phenyl]-9-oxa-3,7-diazabicyclo[3.3.1]nonan-3-yl]-2-hydroxy-ethanone]
13 | COc1cc(O[C@@H]2CCN(C(=O)[C@H](C)O)C2)ccc1Nc1ncc(Cl)c(-c2cnc3ccccn23)n1 [Example 12A, (2S)-1-[(3R)-3-[4-[(5-chloro-4-imidazo[1,2-a]pyridin-3-yl-pyrimidin-2-yl)amino]-3-methoxy-phenoxy]pyrrolidin-1-yl]-2-hydroxy-propan-1-one]
31 | COc1cc(C)c(Nc2ncc(Br)c(-c3cnc4ccccn34)n2)cc1OC [Example 124, 5-bromo-N-(4,5-dimethoxy-2-methyl-phenyl)-4-imidazo[1,2-a]pyridin-3-yl-pyrimidin-2-amine]
19 | COc1cc(OC2CN(CCO)C2)ccc1Nc1ncc(Cl)c(-c2cnc3ccccn23)n1 [Example 64, 2-[3-[4-[(5-chloro-4-imidazo[1,2-a]pyridin-3-yl-pyrimidin-2-yl)amino]-3-methoxy-phenoxy]azetidin-1-yl]ethanol]
42 | COc1ccc(C2CCNCC2)cc1Nc1ncc(F)c(-c2cnc3ccccn23)n1 [Example 112, 5-fluoro-4-imidazo[1,2-a]pyridin-3-yl-N-[2-methoxy-5-(4-piperidyl)phenyl]pyrimidin-2-amine]
17 | COCCCNCc1ccc(Nc2ncc(Cl)c(-c3cnc4ccccn34)n2)c(OC)c1 [Example 21.9, 5-chloro-4-imidazo[1,2-a]pyridin-3-yl-N-[2-methoxy-4-[(3-methoxypropylamino)methyl]phenyl]pyrimidin-2-amine]
15 | COc1cc(N2CCN(C(C)=O)CC2)ccc1Nc1ncc(Cl)c(-c2cnc3cc(Br)ccn23)n1 [Example 126.19, 1-[4-[4-[[4-(7-bromoimidazo[1,2-a]pyridin-3-yl)-5-chloro-pyrimidin-2-yl]amino]-3-methoxy-phenyl]piperazin-1-yl]ethanone]
54 | COc1cc(OC[C@H]2CCCN2)ccc1Nc1ncc(C)c(-c2cnc3ccccn23)n1 [Example 102, 4-imidazo[1,2-a]pyridin-3-yl-N-[2-methoxy-4-[[(2R)-pyrrolidin-2-yl]methoxy]phenyl]-5-methyl-pyrimidin-2-amine]

IC50 [nM] | SMILES
24 | COc1cc(C2CCN(C(C)=O)CC2)ccc1Nc1ncc(C)c(-c2cnc3ccccn23)n1 [Example 99, 1-[4-[4-[(4-imidazo[1,2-a]pyridin-3-yl-5-methyl-pyrimidin-2-yl)amino]-3-methoxy-phenyl]-1-piperidyl]ethanone]
30 | COc1cc(N2CC3CN(C(=O)CN)CC(C2)O3)ccc1Nc1ncc(Cl)c(-c2cnc3c(F)cccn23)n1 [Example 209, 2-amino-1-[7-[4-[[5-chloro-4-(8-fluoroimidazo[1,2-a]pyridin-3-yl)pyrimidin-2-yl]amino]-3-methoxy-phenyl]-9-oxa-3,7-diazabicyclo[3.3.1]nonan-3-yl]ethanone]
33 | COc1ccc(N2CCN(C(N)=O)CC2)cc1Nc1ncc(Cl)c(-c2cnc3ccccn23)n1 [Example 55, 4-[3-[(5-chloro-4-imidazo[1,2-a]pyridin-3-yl-pyrimidin-2-yl)amino]-4-methoxy-phenyl]piperazine-1-carboxamide]
120 | COc1cc2c(cc1Nc1ncc(Cl)c(-c3cnn4ccccc34)n1)NCC2 [Example 155, N-(5-chloro-4-pyrazolo[1,5-a]pyridin-3-yl-pyrimidin-2-yl)-5-methoxy-indolin-6-amine]
18 | COc1cc(O[C@@H]2CCN(S(C)(=O)=O)C2)ccc1Nc1ncc(Cl)c(-c2cnc3ccccn23)n1 [Example 11, 5-chloro-4-imidazo[1,2-a]pyridin-3-yl-N-[2-methoxy-4-[(3R)-1-methylsulfonylpyrrolidin-3-yl]oxy-phenyl]pyrimidin-2-amine]
15 | COc1cc(N2CCN(CCO)CC2)ccc1Nc1ncc(Cl)c(-c2cnc3c(F)cccn23)n1 [Example 194, 2-[4-[4-[[5-chloro-4-(8-fluoroimidazo[1,2-a]pyridin-3-yl)pyrimidin-2-yl]amino]-3-methoxy-phenyl]piperazin-1-yl]ethanol]
24 | COc1cc(OC2CN(C(=O)[C@@H](C)OC)C2)ccc1Nc1ncc(Cl)c(-c2cnc3ccccn23)n1 [Example 27.4, (2R)-1-[3-[4-[(5-chloro-4-imidazo[1,2-a]pyridin-3-yl-pyrimidin-2-yl)amino]-3-methoxy-phenoxy]azetidin-1-yl]-2-methoxy-propan-1-one]
5 | COc1cc(N2CCN(C(=O)[C@@H](C)N)CC2)ccc1Nc1ncc(Cl)c(-c2cnc3cc(C)ccn23)n1 [Example 254, (2R)-2-amino-1-[4-[4-[[5-chloro-4-(7-methylimidazo[1,2-a]pyridin-3-yl)pyrimidin-2-yl]amino]-3-methoxy-phenyl]piperazin-1-yl]propan-1-one]
10 | COc1cc(N2CC[C@@H](N)C2)ccc1Nc1ncc(Cl)c(-c2cnc3ccccn23)n1 [Example 71, N-[4-[(3R)-3-aminopyrrolidin-1-yl]-2-methoxy-phenyl]-5-chloro-4-imidazo[1,2-a]pyridin-3-yl-pyrimidin-2-amine]
23 | COc1cc(CN[C@@H](C)CO)ccc1Nc1ncc(Cl)c(-c2cnc3ccccn23)n1 [Example 21.19, (2S)-2-[[4-[(5-chloro-4-imidazo[1,2-a]pyridin-3-yl-pyrimidin-2-yl)amino]-3-methoxy-phenyl]methylamino]propan-1-ol]
96 | COc1cc(N2CCN(C(C)=O)CC2)ccc1Nc1ncc(F)c(-c2cnc3ccccn23)n1 [Example 72, 1-[4-[4-[(5-fluoro-4-imidazo[1,2-a]pyridin-3-yl-pyrimidin-2-yl)amino]-3-methoxy-phenyl]piperazin-1-yl]ethanone]
1 | CNCC(=O)N1CCC(c2ccc(Nc3ncc(Cl)c(-c4cnc5c(F)cccn45)n3)c(OC)c2)CC1 [Example 182, 1-[4-[4-[[5-chloro-4-(8-fluoroimidazo[1,2-a]pyridin-3-yl)pyrimidin-2-yl]amino]-3-methoxy-phenyl]-1-piperidyl]-2-(methylamino)ethanone]
6 | COc1cc(N2CCN(C(=O)[C@@H](O)CO)CC2)ccc1Nc1ncc(Cl)c(-c2cnc3ccccn23)n1 [Example 56, (2S)-1-[4-[4-[(5-chloro-4-imidazo[1,2-a]pyridin-3-yl-pyrimidin-2-yl)amino]-3-methoxy-phenyl]piperazin-1-yl]-2,3-dihydroxy-propan-1-one]
25 | COc1ccc(N2CCN(C(=O)CN(C)C)CC2)cc1Nc1ncc(Cl)c(-c2cnn3ccccc23)n1 [Example 152, 1-[4-[3-[(5-chloro-4-pyrazolo[1,5-a]pyridin-3-yl-pyrimidin-2-yl)amino]-4-methoxy-phenyl]piperazin-1-yl]-2-(dimethylamino)ethanone]
130 | COc1cc(N(C)CC(=O)N(C)C)ccc1Nc1ncc(Cl)c(-c2cnc3c(F)cccn23)n1 [Example 225, 2-[4-[[5-chloro-4-(8-fluoroimidazo[1,2-a]pyridin-3-yl)pyrimidin-2-yl]amino]-3-methoxy-N-methyl-anilino]-N,N-dimethyl-acetamide]
60 | COc1cc(N2CCN(CCO)CC2)ccc1Nc1ncc(OC)c(-c2cnc3ccccn23)n1 [Example 95, 2-[4-[4-[(4-imidazo[1,2-a]pyridin-3-yl-5-methoxy-pyrimidin-2-yl)amino]-3-methoxy-phenyl]piperazin-1-yl]ethanol]
